# Test results from patent US10131652B2, “Pyrimidinyloxy benzene derivatives as herbicides” (E. I. DU PONT DE NEMOURS AND COMPANY, priority 2014, dated 2018).
# Like-named read-outs stand apart in the source and are kept apart here.
# Key:
# Test in all cases: Test D pre-/postemergence plant response
# Assay type in all cases: in vivo
# [1] = system: corn (Zea mays); settings: Zea mays; for Corn plant response rating (crop injury, 0 = no effect, 100 = complete kill) at 62 g/ha: 62 g ai/ha
# Method in brief: (§1)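 Two application timings were run together: preemergence onto seeded loam–sand pots, and postemergence onto 1- to 4-leaf plants (2 to 18 cm) in peat/vermiculite medium with starter nutrients. Formulation was a non-phytotoxic solvent with surfactant. Ratings, 0 to 100, were made visually versus controls after 13 to 15 greenhouse days.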
# [2] = system: morningglory (Ipomoea coccinea); settings: Ipomoea; for pest or weed control at 8 g/ha: 8 g ai/ha; for pest or weed control at 16 g/ha: 16 g ai/ha; for pest or weed control at 31 g/ha: 31 g ai/ha; for pest or weed control at 62 g/ha: 62 g ai/ha
# Method in brief: as §1
# [3] = system: ragweed (common ragweed, Ambrosia elatior); settings: Ambrosia artemisiifolia; for pest or weed control at 8 g/ha: 8 g ai/ha; for pest or weed control at 16 g/ha: 16 g ai/ha; for pest or weed control at 31 g/ha: 31 g ai/ha; for pest or weed control at 62 g/ha: 62 g ai/ha
# Method in brief: as §1
# [4] = system: waterhemp (common waterhemp, Amaranthus rudis); settings: Amaranthus tuberculatus; for pest or weed control at 8 g/ha: 8 g ai/ha; for pest or weed control at 16 g/ha: 16 g ai/ha; for pest or weed control at 31 g/ha: 31 g ai/ha; for pest or weed control at 62 g/ha: 62 g ai/ha
# Method in brief: as §1
# [5] = system: giant foxtail (Setaria faberii); settings: Setaria faberi; for pest or weed control at 8 g/ha: 8 g ai/ha; for pest or weed control at 16 g/ha: 16 g ai/ha; for pest or weed control at 31 g/ha: 31 g ai/ha; for pest or weed control at 62 g/ha: 62 g ai/ha
# Method in brief: as §1
# [6] = system: barnyardgrass (Echinochloa crus-galli); settings: Echinochloa crus-galli; for pest or weed control at 8 g/ha: 8 g ai/ha; for pest or weed control at 16 g/ha: 16 g ai/ha; for pest or weed control at 31 g/ha: 31 g ai/ha; for pest or weed control at 62 g/ha: 62 g ai/ha
# Method in brief: as §1
# [7] = post-emergence, Postemergence, scale 0 to 100 (0 no effect, 100 complete control), read-out: Morningglory plant response rating
# [8] = pre-emergence, Preemergence, scale 0 to 100 (0 no effect, 100 complete control), read-out: Plant response rating, Morningglory
# [9] = post-emergence, Postemergence, scale 0 to 100 (0 no effect, 100 complete control), read-out: Ragweed plant response rating
# [10] = pre-emergence, Preemergence, scale 0 to 100 (0 no effect, 100 complete control), read-out: Plant response rating, Ragweed
# [11] = post-emergence, Postemergence, scale 0 to 100 (0 no effect, 100 complete control), read-out: Waterhemp plant response rating
# [12] = pre-emergence, Preemergence, scale 0 to 100 (0 no effect, 100 complete control), read-out: Plant response rating, Waterhemp
# [13] = post-emergence, Postemergence, scale 0 to 100 (0 no effect, 100 complete control), read-out: Foxtail, Giant plant response rating
# [14] = pre-emergence, Preemergence, scale 0 to 100 (0 no effect, 100 complete control), read-out: Plant response rating, Foxtail, Giant
# [15] = post-emergence, Postemergence, scale 0 to 100 (0 no effect, 100 complete control), read-out: Barnyardgrass plant response rating
# [16] = pre-emergence, Preemergence, scale 0 to 100 (0 no effect, 100 complete control), read-out: Plant response rating, Barnyardgrass
structure (smiles),measurement,setting,value
"FC(F)c1cc(-c2ccccc2Oc2ncc(Cl)cn2)no1 [Compound 35, 5-chloro-2-[2-[5-(difluoromethyl)-3-isoxazolyl]phenoxy]pyrimidine]",plant injury at 31 g/ha,"[1]; post-emergence, Postemergence, 31 g ai/ha, scale 0 to 100 (0 no effect, 100 complete control), read-out: Corn plant response rating",10%
same,"Corn plant response rating (crop injury, 0 = no effect, 100 = complete kill) at 62 g/ha","[1]; post-emergence, Postemergence, scale 0 to 100, 0 no effect, 100 complete control",20%
same,"Corn plant response rating (crop injury, 0 = no effect, 100 = complete kill) at 8 g/ha","[1]; pre-emergence, Preemergence, 8 g ai/ha, scale 0 to 100 (0 no effect, 100 complete control)",0%
same,"Corn plant response rating (crop injury, 0 = no effect, 100 = complete kill) at 16 g/ha","[1]; pre-emergence, Preemergence, 16 g ai/ha, scale 0 to 100 (0 no effect, 100 complete control)",0%
same,"Corn plant response rating (crop injury, 0 = no effect, 100 = complete kill) at 31 g/ha","[1]; pre-emergence, Preemergence, 31 g ai/ha, scale 0 to 100 (0 no effect, 100 complete control)",0%
same,"Corn plant response rating (crop injury, 0 = no effect, 100 = complete kill) at 62 g/ha","[1]; pre-emergence, Preemergence, scale 0 to 100 (0 no effect, 100 complete control)",15%
same,pest or weed control at 8 g/ha,"[2]; post-emergence, Postemergence, read-out: Plant response rating (scale 0 to 100), Morningglory",25%
same,pest or weed control at 16 g/ha,[2]; [7],60%
same,pest or weed control at 31 g/ha,[2]; [7],85%
same,pest or weed control at 62 g/ha,"[2]; post-emergence, Postemergence, scale 0 to 100, 0 no effect, 100 complete control, read-out: Plant response rating, Morningglory",98%
same,pest or weed control at 8 g/ha,[2]; [8],0%
same,pest or weed control at 16 g/ha,[2]; [8],0%
same,pest or weed control at 31 g/ha,[2]; [8],55%
same,pest or weed control at 62 g/ha,[2]; [8],90%
same,pest or weed control at 8 g/ha,"[3]; post-emergence, Postemergence, read-out: Plant response rating (scale 0 to 100), Ragweed",40%
same,pest or weed control at 16 g/ha,[3]; [9],45%
same,pest or weed control at 31 g/ha,[3]; [9],85%
same,pest or weed control at 62 g/ha,"[3]; post-emergence, Postemergence, scale 0 to 100, 0 no effect, 100 complete control, read-out: Plant response rating, Ragweed",75%
same,pest or weed control at 8 g/ha,[3]; [10],55%
same,pest or weed control at 16 g/ha,[3]; [10],40%
same,pest or weed control at 31 g/ha,[3]; [10],75%
same,pest or weed control at 62 g/ha,[3]; [10],80%
same,pest or weed control at 8 g/ha,"[4]; post-emergence, Postemergence, read-out: Plant response rating (scale 0 to 100), Waterhemp",75%
same,pest or weed control at 16 g/ha,[4]; [11],75%
same,pest or weed control at 31 g/ha,[4]; [11],95%
same,pest or weed control at 62 g/ha,"[4]; post-emergence, Postemergence, scale 0 to 100, 0 no effect, 100 complete control, read-out: Plant response rating, Waterhemp",98%
same,pest or weed control at 8 g/ha,[4]; [12],100%
same,pest or weed control at 16 g/ha,[4]; [12],100%
same,pest or weed control at 31 g/ha,[4]; [12],100%
same,pest or weed control at 62 g/ha,[4]; [12],100%
same,pest or weed control at 8 g/ha,"[5]; post-emergence, Postemergence, read-out: Plant response rating (scale 0 to 100), Foxtail, Giant",5%
same,pest or weed control at 16 g/ha,[5]; [13],5%
same,pest or weed control at 31 g/ha,[5]; [13],10%
same,pest or weed control at 62 g/ha,"[5]; post-emergence, Postemergence, scale 0 to 100, 0 no effect, 100 complete control, read-out: Plant response rating, Foxtail, Giant",15%
same,pest or weed control at 8 g/ha,[5]; [14],70%
same,pest or weed control at 16 g/ha,[5]; [14],90%
same,pest or weed control at 31 g/ha,[5]; [14],98%
same,pest or weed control at 62 g/ha,[5]; [14],100%
same,pest or weed control at 8 g/ha,"[6]; post-emergence, Postemergence, read-out: Plant response rating (scale 0 to 100), Barnyardgrass",10%
same,pest or weed control at 16 g/ha,[6]; [15],15%
same,pest or weed control at 31 g/ha,[6]; [15],20%
same,pest or weed control at 62 g/ha,"[6]; post-emergence, Postemergence, scale 0 to 100, 0 no effect, 100 complete control, read-out: Plant response rating, Barnyardgrass",20%
same,pest or weed control at 62 g/ha,"[6]; pre-emergence, Preemergence, read-out: Plant response rating (scale 0 to 100), Barnyardgrass",100%
same,pest or weed control at 8 g/ha,[6]; [16],5%
same,pest or weed control at 16 g/ha,[6]; [16],65%
same,pest or weed control at 31 g/ha,[6]; [16],75%
